Data: ChEMBL document CHEMBL4476878, “Galactokinase inhibitors” (2013)
Calls of active or inactive are those of the source.

How the values were obtained:
[1] = target: Galactokinase (Homo sapiens) (UniProt P51570); assay: Inhibition of His6-tagged recombinant human GALK expressed in Escherichia coli HMS174 (DE3) incubated for 60 mins using galactose and ATP by Kinase-Glo reagent based assay
[2] = system: Geobacillus stearothermophilus; assay: Inhibition of Bacillus stearothermophilus glucokinase
Saccharomyces cerevisiae = assay: Inhibition of Saccharomyces cerevisiae hexokinase
[3] = target: Galactokinase (Homo sapiens) (UniProt P51570); assay: Inhibition of His6-tagged recombinant human GALK expressed in Escherichia coli HMS174 (DE3) by pyruvate kinase/lactate dehydrogenase-coupled assay
[4] = target: T1, 4-diphosphocytidyl-2-C-methyl-D-erythritol kinase (Escherichia coli (strain K12)) (UniProt P62615); assay: Inhibition of purified Escherichia coli CDP-ME kinase IspE expressed in Escherichia coli HMS174 at 10 to 50 uM by luciferase-luciferin based luminescence-based assay
T1 sequence (whole entry): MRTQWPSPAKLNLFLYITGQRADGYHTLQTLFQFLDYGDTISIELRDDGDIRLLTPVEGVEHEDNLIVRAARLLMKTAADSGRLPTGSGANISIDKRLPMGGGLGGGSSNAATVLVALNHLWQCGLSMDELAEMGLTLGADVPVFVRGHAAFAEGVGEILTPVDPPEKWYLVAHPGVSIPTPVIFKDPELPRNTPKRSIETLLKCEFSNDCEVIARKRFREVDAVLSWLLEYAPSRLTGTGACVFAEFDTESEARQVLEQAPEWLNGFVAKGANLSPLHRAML

[5] = target: Galactokinase (Homo sapiens) (UniProt P51570); assay: Inhibition of His6-tagged recombinant human GALK expressed in Escherichia coli HMS174 (DE3) at 5 to 15 uM incubated for 60 mins using galactose and ATP by Kinase-Glo reagent based assay

Measured: inhibition

Galactokinase (Homo sapiens), sequence (P51570 whole entry): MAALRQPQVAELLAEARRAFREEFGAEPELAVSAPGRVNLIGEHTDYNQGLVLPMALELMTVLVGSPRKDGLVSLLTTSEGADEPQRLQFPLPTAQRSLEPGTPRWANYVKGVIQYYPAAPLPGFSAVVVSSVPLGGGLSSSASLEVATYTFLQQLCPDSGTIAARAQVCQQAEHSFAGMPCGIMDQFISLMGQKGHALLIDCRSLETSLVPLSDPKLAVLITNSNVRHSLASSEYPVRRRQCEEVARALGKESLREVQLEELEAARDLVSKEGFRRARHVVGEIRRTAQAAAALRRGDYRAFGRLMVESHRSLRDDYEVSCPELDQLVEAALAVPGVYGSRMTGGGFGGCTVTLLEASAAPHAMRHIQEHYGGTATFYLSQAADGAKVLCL

O=C1Nc2ccc(I)cc2/C1=C/c1cc(Br)c(O)c(Br)c1
active: [1] | [2] | Saccharomyces cerevisiae

CC(C)(C)c1cc(/C=C2/SC(=S)NC2=O)cc(C(C)(C)C)c1O
active: [1] | [2] | Saccharomyces cerevisiae

O=C1OC(c2ccccc2)OC(=O)C1=C/C=C/c1ccccc1 (stereo not drawn)
active: [1] | [2] | Saccharomyces cerevisiae

Cc1cccc(OCCOc2ccc(Br)cc2/C=C2\SC(=S)NC2=O)c1
active: [1] | [2] | Saccharomyces cerevisiae

Oc1c(Cl)cc(Cl)c(Cl)c1Cc1c(O)c(Cl)cc(Cl)c1Cl
active: [1] | [2] | Saccharomyces cerevisiae | [3]

O=C1C(NS(=O)(=O)c2ccccc2)=C/C(=N\S(=O)(=O)c2ccc(F)cc2)c2ccccc21
active: [1] | [2] | Saccharomyces cerevisiae

O=C(NC1(O)C(=O)c2ccccc2C1=O)c1cnn(-c2ccccc2)c1C(F)(F)F
active: [1] | [2] | Saccharomyces cerevisiae

CC1=NN(c2cccc(C(=O)O)c2)C(=O)/C1=C/c1ccc(-c2cccc(Cl)c2C)o1
active: [1] | [2] | Saccharomyces cerevisiae

N#CC1=C(SCc2ccccc2)SC(c2ccccc2O)NC1=O (stereo not drawn)
active: [1] | [2] | Saccharomyces cerevisiae

CC(C)(C)C(=O)Nc1ccc2c(c1)C(=O)C(=O)c1ccccc1-2
active: [1] | [2] | Saccharomyces cerevisiae | [3]

Cc1cc2c(C(C)C)c(O)c(O)c(C=O)c2c(O)c1-c1c(C)cc2c(C(C)C)c(O)c(O)c(C=O)c2c1O
active: [4]

N#CC1=C(SCc2ccccc2)SC(c2ccc(C(=O)O)cc2)NC1=O (stereo not drawn)
active: [1] | [2] | Saccharomyces cerevisiae

c1ccc(-c2cnc3nonc3n2)cc1
active: [1] | [2] | Saccharomyces cerevisiae

Cc1ccc(CSc2nc(C(=O)O)ccc2C#N)cc1
active: [1] | [2] | Saccharomyces cerevisiae

O=C1C=C2N(c3ccccc3)CCOC2(O)c2ccccc21 (stereo not drawn)
active: [1] | [2] | Saccharomyces cerevisiae

Cc1c(O)c(C(=O)CC(C)C)c2oc3c(C(=O)CC(C)C)c(O)c(C)c(O)c3c2c1O
active: [1] | [2] | Saccharomyces cerevisiae

O=C1OC2(c3ccccc31)c1cc(I)c(O)c(I)c1Oc1c2cc(I)c(O)c1I
active: [1] | [2] | Saccharomyces cerevisiae

Oc1c(Cl)cc(Cl)cc1Sc1cc(Cl)cc(Cl)c1O
active: [1] | [2] | Saccharomyces cerevisiae

CCSC1=C(C#N)C(=O)NC(/C=C/c2ccccc2)S1 (stereo not drawn)
active: [1] | [2] | Saccharomyces cerevisiae

Nc1ncnc2c1ncn2[C@@H]1O[C@H](COP(=O)(O)OP(=O)(O)OP(O)(O)=S)[C@@H](O)[C@H]1O
active: [5]

CCOc1cccc(NC(=O)C2CC(=O)N(/N=C(\C)c3ccc(Br)s3)C(=N)S2)c1 (stereo not drawn)
active: [1] | [2] | Saccharomyces cerevisiae

CC1=NOC(=O)/C1=C\c1ccc(-c2ccccc2)o1
active: [1] | [2] | Saccharomyces cerevisiae

O=C1NC(=O)N(c2ccccc2)C(=O)/C1=C/c1c2ccccc2cc2ccccc12
active: [1] | [2] | Saccharomyces cerevisiae

CC(C)OC1(O)C(=O)c2ccccc2C(=O)C1(O)OC(C)C (stereo not drawn)
active: [1] | [2] | Saccharomyces cerevisiae

CC1(c2ccccc2)CC(C)(C)N2C(=O)/C(=C3/SC(=O)NC3=O)c3cccc1c32 (stereo not drawn)
active: [1] | [2] | Saccharomyces cerevisiae | [3]

N#Cc1c(-c2ccc(Cl)cc2)nc(SCc2ccccc2)[nH]c1=S
active: [1] | [2] | Saccharomyces cerevisiae

CC1(C)CCC2=C(O1)c1ccccc1C(=O)C2=O
active: [1] | [2] | Saccharomyces cerevisiae

O=C1OC2(CCCC2)OC(=O)C1=Cc1ccc(OCc2ccccc2)cc1
active: [1] | [2] | Saccharomyces cerevisiae

O=C1NC(=S)N(c2cccc3ccccc23)C(=O)/C1=C/c1c[nH]c2ccccc12
active: [1] | [2] | Saccharomyces cerevisiae

COC1=C(N)C(=O)c2nc(-c3nc(C(=O)O)c(C)c(-c4ccc(OC)c(OC)c4O)c3N)ccc2C1=O
active: [1] | [2] | Saccharomyces cerevisiae | [3]

COC(=O)CSC1=C(C#N)C(=O)NC(c2ccccc2O)S1 (stereo not drawn)
active: [1] | [2] | Saccharomyces cerevisiae

O=C1O[C@H](c2ccccc2)[C@H](c2ccccc2)N2[C@H]1[C@@H](C(=O)O)[C@]1(C(=O)Nc3ccc(C#CC4(O)CCCCCC4)cc31)[C@H]2c1ccc(OCCO)cc1
active: [1] | [2] | Saccharomyces cerevisiae

Cn1c(=S)[nH]c2sc3c(c2c1=O)CCC(C(C)(C)C)C3 (stereo not drawn)
active: [1] | [2] | Saccharomyces cerevisiae

Cc1c(N=c2c(=O)c3ccccc3c2=O)c(=O)n(-c2ccccc2)n1C
active: [1] | [2] | Saccharomyces cerevisiae

N#Cc1ccc(CSc2nc(-c3cccs3)c3c(c2C(=O)O)CCCC3)cc1
active: [1] | [2] | Saccharomyces cerevisiae

COc1cc(/C=C2/SC(=S)NC2=O)ccc1OC(=O)c1cccc(C)c1
active: [1] | [2] | Saccharomyces cerevisiae
